From patent US8778954B2, “Phenylpyridine derivative and medicinal agent comprising same” (Kowa Company, Ltd., priority 2009, dated 2014)

What was measured:
db/db mice = experiment: Impaired glucose tolerance improving activity in type 2 diabetes model mouse; type: in vivo; settings: oral once a day, Example 23 10 mg/kg, Example 21 30 mg/kg, telmisartan 30 mg/kg; for plasma glucose concentration: 2 weeks after initiation, FIG. 2; for AUC of plasma glucose in the glucose tolerance test (120 minutes after glucose solution): 4 weeks, glucose 2 g/kg, FIG. 3
Method: By using 7-week old db/db mice, the body weight and the plasma glucose concentration of each mouse were measured before administration of the medicine, and group separation was performed by blocking assignment so that there was no variation of these values between respective groups. Solvent control (0.5% MC), 5 mg/kg rosiglitazone, 30 mg/kg telmisartan, 10 mg/kg of the compound of Example 23, and 30 mg/kg of the compound of Example 21 were orally administered iteratively for 4 weeks, once a day. Blood collecting was performed from the orbital vein plexus, and the plasma glucose concentration was measured at 2 weeks after the initiation of the administration. Furthermore, oral glucose tolerance test was performed at 4 weeks after the initiation of the administration. Specifically, the mouse was fasted for 24 hours from the night before the glucose tolerance test, and then a glucose solution was orally administered at a dose of 2 g/kg. The blood was collected from the tail vein of the mouse at 15, 30, 60, and 120 minutes after the administration of the glucose solution, and the concentration of the plasma glucose was measured. The area surrounded with the measured plasma glucose concentration and the time was taken as the area under the curve (AUC), and AUC for 120 minutes after administration of the glucose solution was estimated from the trapezoidal method.
Vehicle, Rosiglitazone, Telmisartan, Compound 23, and Compound 21 in FIGS. 2 and 3 represent solvent control, rosiglitazone, telmisartan, the compound of Example 23, and the compound of Example 21, respectively. The vertical axis of FIG. 2 represents the plasma glucose concentration. The data in FIG. 2 represents individual values and average values of each individual. The vertical axis of FIG. 3 represents the area under the curve surrounded with the plasma glucose concentration and the time (for 120 minutes after administration of the glucose solution). The data in FIG. 3 represents individual values and average values of each individual. […] Such activities were not confirmed for the telmisartan administration group.

[1] = tested on: Zucker diabetic fatty (ZDF) rats; experiment: Activity for diabetic nephropathy in Zucker diabetic fatty rats; type: in vivo, rat; settings: 3 mg/kg once a day for 15 weeks; for elimination amount of urinary total protein per 18 hours: FIG. 4; for plasma triglyceride concentration: FIG. 5; for plasma total cholesterol concentration: FIG. 6; for renal protecting activity (diabetic nephropathy): overall conclusion
Method: By using 8-week old Zucker diabetic fatty (ZDF) rats, the body weight, the elimination amount of urinary total protein (UTP), the plasma triglyceride concentration (TG), and the plasma total cholesterol concentration (TC) of each rat were measured before administration of the medicine, and group separation was performed by blocking assignment so that there was no variation of these values between respective groups. Solvent control (0.5% MC), 3 mg/kg telmisartan, 3 mg/kg of the compound of Example 21, and 3 mg/kg of the compound of Example 23 were administered iteratively for 15 weeks once a day. UTP, TG, and TC were measured according to a general method during the administration period at 4, 8, 12, and 15 weeks after the administration.
Vehicle, Telmisartan, Compound 23, and Compound 21 in FIGS. 4, 5, and 6 represent solvent control, telmisartan, the compound of Example 23, and the compound of Example 21, respectively. The horizontal axis of FIG. 4-1 represents time (weeks after administration), and the vertical axis represents the elimination amount of urinary total protein per 18 hours. The data in FIG. 4-1 represents average values of each individual in each point, wherein -●- represents Vehicle (solvent control), -♦- represents Telmisartan, -▪- represents Compound 23 (the compound of Example 23), and -▴- represents Compound 21 (the compound of Example 21). The vertical axis of FIG. 4-2 represents the elimination amount of urinary total protein per 18 hours. The data in FIG. 4-2 represents individual values and average values of each individual +standard deviation.
The vertical axis of FIG. 5 represents the plasma triglyceride concentration. The data in FIG. 5 represents individual values and average values of each individual.
The vertical axis of FIG. 6 represents the plasma total cholesterol concentration. The data in FIG. 6 represents individual values and average values of each individual.
Furthermore, it was believed that one reason for the potent activity may be related to improving activity of lipid metabolism, and it is believed that the potent activity is attributed to activities other than the angiotensin receptor antagonistic activity.

Row | SMILES | plasma glucose concentration (db/db mice) | AUC of plasma glucose in the glucose tolerance test (120 minutes after glucose solution) (db/db mice) | elimination amount of urinary total protein per 18 hours [1] | plasma triglyceride concentration [1] | plasma total cholesterol concentration [1] | renal protecting activity (diabetic nephropathy) [1]
1 | CCCCc1nc(C(C)C)n(-c2ncc(OCC)cn2)c(=O)c1Cc1ccc(-c2ccccc2-c2noc(=O)[nH]2)nc1 [Example 21, 3-{2-{5-{[4-butyl-1-(5-ethoxypyrimidin-2-yl)-2-isopropyl-6-oxo-1,6-dihydropyrimidin-5-yl]methyl}pyridin-2-yl}phenyl}-1,2,4-oxadiazol-5(4H)-one] | remarkable lowering activity of the plasma glucose concentration | remarkably lowering AUC | remarkably inhibited increase of the elimination amount of urinary total protein, and their activity was more potent than that of telmisartan | remarkably lowered the plasma triglyceride concentration | remarkably lowered the plasma total cholesterol concentration, and such activity was more potent than that of telmisartan | potent renal protecting activity
2 | CCCCc1nc(C2CC2)n(-c2ncc(OCC)cn2)c(=O)c1Cc1ccc(-c2ccccc2-c2noc(=O)[nH]2)nc1 [Example 23, 3-{2-{5-{[4-butyl-2-cyclopropyl-1-(5-ethoxypyrimidin-2-yl)-6-oxo-1,6-dihydropyrimidin-5-yl]methyl}pyridin-2-yl}phenyl}-1,2,4-oxadiazol-5(4H)-one] | remarkable lowering activity of the plasma glucose concentration | remarkably lowering AUC | remarkably inhibited increase of the elimination amount of urinary total protein, and their activity was more potent than that of telmisartan | remarkably lowered the plasma triglyceride concentration | remarkably lowered the plasma total cholesterol concentration, and such activity was more potent than that of telmisartan | potent renal protecting activity
